Data as given in PMC11025159 (Journal of Translational Medicine, 2024).
Values joined by “and” are separate entries in the source; they are usually repeats but may differ in a detail not shown here. Equal entries are not always repeated. Structures can show the parent of a compound that is named as a salt.

Columns and labels:
[1] = test system: DHT-induced AGA mice; experiment: Hair regrowth in DHT-induced AGA mice model (topical, 28 days); format: in vivo, C57BL/6J mice
Description: (§1) C57BL/6 J mice (male) were obtained from CSIR-IIIM Animal House at 7 weeks of age. We used a DHT-induced AGA mice model for this study. […] At the end of the experiment, skin samples were collected and preserved in 10% neutral buffered formalin for tissue sectioning and staining using haematoxylin and eosin (H&E). The histopathological examinations were performed under the 10× and 40× objectives of light microscope (Magnus, Mx21i).
Dorsal skin samples from C57BL/6J mice were shaved and collected for histological and molecular analyses on Days 7, 14, 21, and 28. The full-thickness skin tissue was fixed in a 10% neutral buffered formalin solution (Sigma) overnight and subsequently dehydrated for embedding in paraffin. Haematoxylin and eosin (H&E) staining was performed on the skin tissue, and digital photomicrographs were taken from the representative areas using light microscope (Magnus, Mx21i).
The quantification of anagen initiation was assessed by observing changes in the dorsal skin colour of C57BL/6 mice, a phenomenon closely linked to the onset of the anagen phase. Anagen quantification was done by employing threshold analysis on dorsal skin colouration using ImageJ. The darkening of the skin, attributed to melanogenesis, strongly correlates with the progression of anagen. This analysis is visually depicted as a heatmap using GraphPad Prism 9.5 Software.

[2] = Body weight, biochemical and haematological parameters in DHT-induced AGA mice (0.5% testosterone then topical treatment); format: in vivo, C57BL/6J mice; conditions: for LYMPH: unit assumed
Description: The experiments were performed on C57BL/6 J and Athymic nude mice (NU/J Foxn1^nu) of 6–7 weeks of age obtained from Animal House Facility, CSIR-Indian Institute of Integrative Medicine (IIIM), Jammu, India. […] The animals were provided with ad libitum feed (standard pellet diet) and autoclaved RO water throughout the study. The body weight of mice was measured after seven days before treatment.
as §1
Every two weeks during the experimental period, mice were anesthetized, and the blood samples were collected into tubes containing heparin sodium to detect the total and differential white blood cells, haemoglobin, red blood cell, platelet count, mean corpuscular haemoglobin, mean corpuscular volume, red blood cell volume, mean platelet volume, and analyzed using an automated haematology analyzer (Model: XT1800i; Make: Sysmex).
Every two weeks during the experimental period, mice and rats were anesthetized, and blood samples were collected into non-heparinized tubes and then centrifuged at 1000 rpm at 4 °C for 10 min to obtain the serum. The biochemical parameters, including total protein, aspartate aminotransferase, alanine aminotransferase, total protein, albumin, total bilirubin, direct bilirubin, glucose, total cholesterol, triglyceride, low-density lipoprotein, high-density lipoprotein, creatinine, and uric acid, were measured using an automatic biochemical analyzer (Model: EM360; Make: Erba Mannheim).

[3] = test system: athymic nude mice (NU/J Foxn1nu); experiment: Hair growth in athymic nude mice (topical, 28 days); format: in vivo; conditions: for H&E skin histopathology finding / hair follicle grade: day 28
Description: (§2) The groups are as follows: Group 1-Control (untreated), Group 2-Vehicle control, Group 3-tofacitinib citrate (0.8 mg/Kg), Group 4-tofacitinib citrate (0.08 mg/Kg), Group 5-MJ04 (0.08 mg/Kg), Group 6-MJ04 (0.04 mg/Kg), Group 7-MJ04 (0.016 mg/Kg), Group 8-baricitinib (0.1 mg/Kg), Group 9-baricitinib (0.04 mg/Kg), and Group 10-baricitinib (0.02 mg/Kg). At the end of the experiment, skin samples were collected and preserved in 10% neutral buffered formalin for tissue sectioning and staining using haematoxylin and eosin (H&E). The histopathological examinations were performed under the 10× and 40× objectives of light microscope (Magnus, Mx21i), and hair follicles were graded on a scale of 0 to 4 (++++).
The skin samples collected from athymic nude mice (NU/J Foxn1^nu) were preserved in 10% neutral buffered formalin and processed for tissue sectioning. The skin sections (10 µm) of nude mice were stained using haematoxylin and eosin (H&E) and viewed under 10× and 40× objectives of the light microscope (Magnus, Mx21i). The histopathological examination of the samples was performed, and the hair follicles in the skin sections were graded on a scale of 0 to 4 (++++).

[4] = Body weight of athymic nude mice during topical treatment; format: in vivo, athymic nude mice (NU/J Foxn1nu); conditions: individual mice
Description: as §2, with “. The” for “The”, “The histopathological examinations were performed under the 10× and 40× objectives of light microscope (Magnus, Mx21i), and hair follicles were graded on a scale of 0 to 4 (++++).” left out

For `C[C@@H]1CCN(C(=O)CC#N)C[C@@H]1N(C)c1ncnc2[nH]ccc12` [Tofacitinib, tofacitinib citrate, reference compound], the “H&E skin histopathology finding” value ([1]; 0.08mg/kg, Days 7, 14, 21, 28) was “Minimal epidermal thinning with few hair follicles on Days 7 and 14 and increased hair follicles on Days 21 and 28”, the “hair follicle phase (histopathology)” value ([1]; skin samples days 7, 14, 21, 28) was “at least in the anagen IIIc-IV phase” and the “entry into the anagen phase” value ([1]; topical once a day in presence of testosterone) was “rapid entry into the anagen phase within seven days of treatment”. The “mice displaying intense skin darkening followed by hair growth” value ([1]; within 10 days of treatment) was “around 90%”, the ALP ([2]; Day 21, 0.08 mg/Kg) was 198 U/L and the ALT/SGPT ([2]; Day 21, 0.08 mg/Kg) was 82 U/L. It also gave an AST/SGOT ([2]; Day 21, 0.08 mg/Kg) of 80 U/L, a Cholesterol ([2]; Day 21, 0.08 mg/Kg) of 216 mg/dL and a Creatine ([2]; Day 21, 0.08 mg/Kg) of 0.49 mg/dL. For the same molecule, the HCT ([2]; Day 21, 0.08 mg/Kg) was 45%, the HDL ([2]; Day 21, 0.08 mg/Kg) was 110 mg/dL and the LDL ([2]; Day 21, 0.08 mg/Kg) was 134 mg/dL. It also gave an MCHC ([2]; Day 21, 0.08 mg/Kg) of 28 g/dL, an MCV ([2]; Day 21, 0.08 mg/Kg) of 51 fL and an NEUT ([2]; Day 21, 0.08 mg/Kg) of 20.2%. The PLT ([2]; Day 21, 0.08 mg/Kg) was 587 103/μl, the RBC ([2]; Day 21, 0.08 mg/Kg) was 9.2 1012/l and the Total protein ([2]; Day 21, 0.08 mg/Kg) was 5.0 g/dL. For the same molecule, the Triglyceride ([2]; Day 21, 0.08 mg/Kg) was 141 mg/dL, the Urea ([2]; Day 21, 0.08 mg/Kg) was 49 mg/dL and the WBC ([2]; Day 21, 0.08 mg/Kg) was 3.0 103/μl. It also gave an LYMPH ([2]; Day 21, 0.08 mg/Kg) of 78.8%, an ALP ([2]; Day 21, 0.8 mg/Kg) of 132 U/L and an ALT/SGPT ([2]; Day 21, 0.8 mg/Kg) of 56 U/L. For the same molecule, the AST/SGOT ([2]; Day 21, 0.8 mg/Kg) was 111 U/L, the Cholesterol ([2]; Day 21, 0.8 mg/Kg) was 211 mg/dL and the Creatine ([2]; Day 21, 0.8 mg/Kg) was 0.63 mg/dL. It also gave an HCT ([2]; Day 21, 0.8 mg/Kg) of 42%, an HDL ([2]; Day 21, 0.8 mg/Kg) of 116 mg/dL and an LDL ([2]; Day 21, 0.8 mg/Kg) of 126 mg/dL. The MCHC ([2]; Day 21, 0.8 mg/Kg) was 29 g/dL, the MCV ([2]; Day 21, 0.8 mg/Kg) was 52 fL and the NEUT ([2]; Day 21, 0.8 mg/Kg) was 21.5%. The PLT ([2]; Day 21, 0.8 mg/Kg) was 917 103/μl, the RBC ([2]; Day 21, 0.8 mg/Kg) was 8.1 1012/l and the Total protein ([2]; Day 21, 0.8 mg/Kg) was 5.2 g/dL. The Triglyceride ([2]; Day 21, 0.8 mg/Kg) was 118 mg/dL, the Urea ([2]; Day 21, 0.8 mg/Kg) was 71 mg/dL and the WBC ([2]; Day 21, 0.8 mg/Kg) was 1.7 103/μl. For the same molecule, the LYMPH ([2]; Day 21, 0.8 mg/Kg) was 77.9%, the ALP ([2]; Day 28, 0.08 mg/Kg) was 199 U/L and the ALT/SGPT ([2]; Day 28, 0.08 mg/Kg) was 177 U/L. For the same molecule, the AST/SGOT ([2]; Day 28, 0.08 mg/Kg) was 136 U/L, the Cholesterol ([2]; Day 28, 0.08 mg/Kg) was 238 mg/dL and the Creatine ([2]; Day 28, 0.08 mg/Kg) was 0.13 mg/dL. For the same molecule, the HCT ([2]; Day 28, 0.08 mg/Kg) was 47.0%, the HDL ([2]; Day 28, 0.08 mg/Kg) was 133 mg/dL and the HGB ([2]; Day 28, 0.08 mg/Kg) was 14 g/dL. It also gave an LDL ([2]; Day 28, 0.08 mg/Kg) of 111 mg/dL, an MCHC ([2]; Day 28, 0.08 mg/Kg) of 29.0 g/dL and an MCV ([2]; Day 28, 0.08 mg/Kg) of 58.0 fL. For the same molecule, the PLT ([2]; Day 28, 0.08 mg/Kg) was 1475 103/μl, the RBC ([2]; Day 28, 0.08 mg/Kg) was 8.1 106/μl and the Total protein ([2]; Day 28, 0.08 mg/Kg) was 6.5 g/dL. The Triglyceride ([2]; Day 28, 0.08 mg/Kg) was 135 mg/dL, the Urea ([2]; Day 28, 0.08 mg/Kg) was 62 mg/dL and the WBC ([2]; Day 28, 0.08 mg/Kg) was 6.7 103/μl. It also gave an ALP ([2]; Day 28, 0.8 mg/Kg) of 252 U/L, an ALT/SGPT ([2]; Day 28, 0.8 mg/Kg) of 134 U/L and an AST/SGOT ([2]; Day 28, 0.8 mg/Kg) of 125 U/L. It also gave a Cholesterol ([2]; Day 28, 0.8 mg/Kg) of 240 mg/dL, a Creatine ([2]; Day 28, 0.8 mg/Kg) of 0.12 mg/dL and an HCT ([2]; Day 28, 0.8 mg/Kg) of 31.0%. For the same molecule, the HDL ([2]; Day 28, 0.8 mg/Kg) was 128 mg/dL, the HGB ([2]; Day 28, 0.8 mg/Kg) was 11 g/dL and the LDL ([2]; Day 28, 0.8 mg/Kg) was 113 mg/dL. For the same molecule, the MCHC ([2]; Day 28, 0.8 mg/Kg) was 34.0 g/dL, the MCV ([2]; Day 28, 0.8 mg/Kg) was 60.0 fL and the PLT ([2]; Day 28, 0.8 mg/Kg) was 1053 103/μl. The RBC ([2]; Day 28, 0.8 mg/Kg) was 5.1 106/μl, the Total protein ([2]; Day 28, 0.8 mg/Kg) was 6.1 g/dL and the Triglyceride ([2]; Day 28, 0.8 mg/Kg) was 132 mg/dL. The Urea ([2]; Day 28, 0.8 mg/Kg) was 50 mg/dL, the WBC ([2]; Day 28, 0.8 mg/Kg) was 5.6 103/μl and the “H&E skin histopathology finding” value ([3]; 0.08 mg/kg) was “Mild epidermal thickening with the increased number of hair follicles”. For the same molecule, the hair follicle grade ([3]; 0.08 mg/kg) was “++++ (graded on a scale ranging from 0 to 4 (++++))”, the “H&E skin histopathology finding” value ([3]; 0.8 mg/kg) was “Mild epidermal thickening with the increased number of hair follicles” and the hair follicle grade ([3]; 0.8 mg/kg) was “++++ (graded on a scale ranging from 0 to 4 (++++))”. For the same molecule, the “early onset of hair” value ([3]; topical) was 12 days, the “Weight of nude mice (NU/J Foxn1nu)” value ([4]; 0.8 mg/kg (first group), DAY 1) was 18.1 and 18.4 and 18.7 and 19.3 and 18.2 and the “Weight of nude mice (NU/J Foxn1nu)” value ([4]; 0.8 mg/kg (first group), DAY 7) was 20.1 and 20.5 (2×) and 19.3 and 19.8. The “Weight of nude mice (NU/J Foxn1nu)” value ([4]; 0.8 mg/kg (first group), DAY 14) was 21.8 and 22.3 and 22.4 and 21.1 and 21.4, the “Weight of nude mice (NU/J Foxn1nu)” value ([4]; 0.8 mg/kg (first group), DAY 21) was 23.7 and 23.9 and 24.1 and 23.1 and 23.3 and the “Weight of nude mice (NU/J Foxn1nu)” value ([4]; 0.8 mg/kg (first group), DAY 28) was 24.6 and 25.3 and 25.4 and 26.1 and 24.5. The “Weight of nude mice (NU/J Foxn1nu)” value ([4]; 0.8 mg/kg (second group so printed), DAY 1) was 18.4 and 18.5 (2×) and 18.9 and 19.3, the “Weight of nude mice (NU/J Foxn1nu)” value ([4]; 0.8 mg/kg (second group so printed), DAY 7) was 19.3 and 19.5 (2×) and 20.6 and 20.7 and the “Weight of nude mice (NU/J Foxn1nu)” value ([4]; 0.8 mg/kg (second group so printed), DAY 14) was 21.1 and 21.4 and 21.3 and 21.8 and 22.1. The “Weight of nude mice (NU/J Foxn1nu)” value ([4]; 0.8 mg/kg (second group so printed), DAY 21) was 22.6 and 22.9 and 23.4 (2×) and 23.8 and the “Weight of nude mice (NU/J Foxn1nu)” value ([4]; 0.8 mg/kg (second group so printed), DAY 28) was 24.8 and 25.1 and 25.3 and 25.4 and 26.1.
